These are literature values, as cited in publication PMC8481536, “Wells–Dawson phosphotungstates as mushroom tyrosinase inhibitors: a speciation study” (Scientific Reports, 2021).

The target of the data set is T1, AbPPO4 (Agaricus bisporus, UniProt C7FF05, S179N/V121A).
T1 construct: GST (glutathione-S-transferase) (N, cleaved yes); made in house; host or cells: E. coli BL21(DE3)
As to conditions: cited from earlier work.

Molecules are shown by their SMILES.

T1 sequence (C7FF05 1-383 V121A/S179N): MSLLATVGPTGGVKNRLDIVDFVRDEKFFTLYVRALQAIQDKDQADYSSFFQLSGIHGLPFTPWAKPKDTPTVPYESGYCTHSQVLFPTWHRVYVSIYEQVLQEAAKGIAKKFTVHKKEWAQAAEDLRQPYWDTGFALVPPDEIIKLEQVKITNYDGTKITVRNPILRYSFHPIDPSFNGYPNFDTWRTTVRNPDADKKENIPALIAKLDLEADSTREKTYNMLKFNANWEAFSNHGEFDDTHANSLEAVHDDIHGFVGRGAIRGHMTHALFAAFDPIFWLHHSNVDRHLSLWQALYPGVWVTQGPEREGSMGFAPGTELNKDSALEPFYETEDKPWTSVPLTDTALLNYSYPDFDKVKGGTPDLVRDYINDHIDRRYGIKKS

As a reminder, the Km is the concentration of substrate that gives half-maximal velocity. With `N[C@@H](Cc1ccc(O)c(O)c1)C(=O)O` [L-DOPA, L-3,4−dihydroxyphenylalanine], the Michaelis constant (Km) was 26.1 mM.
